Assay results: US20060069132A1, “Azolecarboxamide herbicides” (priority 2004, published 2006)

Assays:
[1] = tested on: giant foxtail; test: Test B pre-/postemergence herbicide test; format: in vivo, Setaria faberi
Outline: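 Greenhouse pot assay with simultaneous preemergence (treated seed) and postemergence (2–18 cm seedlings) applications of surfactant-containing, non-phytotoxic solvent formulations. Response scored visually 13–15 days later on a 0–100 scale, 100 meaning complete control.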

[2] = tested on: corn; test: Test C pre-/postemergence herbicide test; format: in vivo, Zea mays; settings: for Corn plant response rating: 500 g ai/ha
Outline: (§1)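 Greenhouse-grown plants were evaluated visually 12 to 14 days after treatment, with 100 meaning complete control and 0 no effect. Application was preemergence, or postemergence at 2 to 18 cm.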

[3] = tested on: pigweed; test: Test C pre-/postemergence herbicide test; format: in vivo, Amaranthus retroflexus; settings: for Pigweed plant response rating: 500 g ai/ha
Outline: as §1

[4] = tested on: kochia; test: Test C pre-/postemergence herbicide test; format: in vivo, Kochia scoparia; settings: for Kochia plant response rating: 500 g ai/ha
Outline: as §1

[5] = tested on: giant foxtail; test: Test A pre-/postemergence herbicide test; format: in vivo, Setaria faberi
Outline: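 Plants are held in greenhouse about ten days after treatment, then compared with untreated controls and scored 0 (no effect) to 100 (complete control). Preemergence dosing is a directed soil spray on sown sandy loam; postemergence dosing is spray to runoff at 2–10 cm height.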

[6] = tested on: yellow nutsedge; test: Test C pre-/postemergence herbicide test; format: in vivo, Cyperus esculentus; settings: for Nutsedge, Yellow plant response rating: 500 g ai/ha
Outline: as §1

[7] = tested on: cocklebur; test: Test C pre-/postemergence herbicide test; format: in vivo, Xanthium strumarium; settings: for Cocklebur plant response rating: 500 g ai/ha
Outline: as §1

[8] = 125 g ai/ha, scale 0 (no effect) to 100 (complete control), visual, 12 to 14 days, preemergence
[9] = 250 g ai/ha, scale 0 to 100 (0 no effect, 100 complete control), visual, 12 to 14 days, preemergence
[10] = Postemergence, 125 g ai/ha, scale 0 to 100, 0 no effect, 100 complete control
[11] = Postemergence, 250 g ai/ha, scale 0 to 100, 0 no effect, 100 complete control
[12] = Preemergence, scale 0 to 100, 0 no effect, 100 complete control
[13] = postemergence, 62 g ai/ha, scale 0 to 100
[14] = Postemergence, 500 g ai/ha, 0 to 100 scale, 0 no effect, 100 complete control
[15] = Postemergence, 2000 g ai/ha, 0 to 100 scale, 0 no effect, 100 complete control
[16] = 62 g ai/ha, preemergence, scale 0 to 100
[17] = 250 g ai/ha, scale 0-100, preemergence

C=CCNC(=O)c1cccc(NC(=O)c2cc(C(C)(C)C)nn2CC)c1 [Compound 46]
30: Foxtail, Giant plant response rating ([1]; Postemergence, 125 g ai/ha, scale 0 (no effect) to 100 (complete control))
80: Corn plant response rating ([2]; Postemergence, scale 0 to 100) | Plant response rating, Corn [2, 10] | Plant response rating, Corn [2, 11] | Plant response rating, Corn [2, 13] | Plant response rating, Foxtail, Giant [5, 14]
70: Plant response rating, Cocklebur [7, 10] | Plant response rating, Cocklebur [7, 11]
100: Foxtail, Giant plant response rating ([1]; Preemergence, 500 g ai/ha, scale 0 to 100) | Plant response rating, Pigweed [3, 8] | Plant response rating, Pigweed [3, 9] | Pigweed plant response rating ([3]; Postemergence, scale 0 to 100) | Plant response rating, Pigweed [3, 11] | Pigweed plant response rating [3, 12] | Plant response rating, Pigweed [3, 13] | Plant response rating, Kochia [4, 9] | Kochia plant response rating ([4]; Postemergence, scale 0 to 100) | Plant response rating, Kochia [4, 11] | Kochia plant response rating [4, 12] | Plant response rating, Foxtail, Giant [5, 15] | Foxtail, Giant plant response rating ([5]; Preemergence, 2000 g ai/ha, 0 to 100 scale, 0 no effect, 100 complete control)
90: Plant response rating, Kochia [4, 8] | Plant response rating, Kochia [4, 13] | Foxtail, Giant plant response rating ([5]; Preemergence, 500 g ai/ha, visual rating, 0 to 100 scale (0 no effect, 100 complete control)) | Plant response rating, Cocklebur [7, 9] | Cocklebur plant response rating ([7]; Postemergence, scale 0 to 100) | Cocklebur plant response rating [7, 12]
40: Plant response rating, Foxtail, Giant ([1]; Postemergence, 500 g ai/ha, visual rating after 13 to 15 days, scale 0 (no effect) to 100 (complete control)) | Nutsedge, Yellow plant response rating ([6]; Postemergence, scale 0 to 100) | Plant response rating, Cocklebur [7, 8]
0: Plant response rating (0 = no effect, 100 = complete control), Corn ([2]; 62 g ai/ha, preemergence) | Plant response rating, Corn [2, 8] | Plant response rating (0 = no effect, 100 = complete control), Kochia ([4]; 62 g ai/ha, preemergence) | Plant response rating (0 = no effect, 100 = complete control), Nutsedge, Yellow ([6]; 62 g ai/ha, preemergence) | Plant response rating, Nutsedge, Yellow [6, 8] | Plant response rating, Nutsedge, Yellow [6, 9] | Nutsedge, Yellow plant response rating [6, 12] | Plant response rating (0 = no effect, 100 = complete control), Cocklebur ([7]; 62 g ai/ha, preemergence)
10: Plant response rating, Corn [2, 9] | Corn plant response rating [2, 12]
60: Plant response rating, Foxtail, Giant ([1]; preemergence, 125 g ai/ha, 0 to 100 scale, 0 is no effect, 100 is complete control) | Plant response rating, Cocklebur [7, 13]
20: Plant response rating (0 = no effect, 100 = complete control), Pigweed ([3]; 62 g ai/ha, preemergence) | Plant response rating, Nutsedge, Yellow [6, 11] | Plant response rating, Nutsedge, Yellow [6, 13]

CCNC(=O)c1cccc(NC(=O)c2sc(C(C)(C)C)nc2C)c1 [Compound 198]
95: Foxtail, Giant plant response rating ([5]; Preemergence, 2000 g ai/ha, visual rating, 0 to 100 scale (0 no effect, 100 complete control))
30: Foxtail, Giant plant response rating ([1]; postemergence, 500 g ai/ha, visual rating, scale 0 (no effect) to 100 (complete control)) | Foxtail, Giant plant response rating [5, 14]
5: Nutsedge, Yellow plant response rating [6, 12]
10: Cocklebur plant response rating [7, 12]
90: Foxtail, Giant plant response rating ([5]; preemergence, 500 g ai/ha, visual injury, 0 to 100 scale (0 no effect, 100 complete control))
100: Plant response rating, Foxtail, Giant ([1]; 500 g ai/ha, visual rating 0-100, 0 no effect, 100 complete control, preemergence) | Plant response rating, Pigweed [3, 16] | Plant response rating, Pigweed [3, 8] | Plant response rating, Pigweed [3, 17] | Pigweed plant response rating [3, 12] | Plant response rating, Kochia [4, 17] | Kochia plant response rating [4, 12]
50: Plant response rating, Kochia [4, 16]
0: Plant response rating, Corn [2, 16] | Plant response rating, Corn [2, 8] | Plant response rating, Corn [2, 17] | Corn plant response rating [2, 12] | Plant response rating, Nutsedge, Yellow [6, 16] | Plant response rating, Nutsedge, Yellow [6, 8] | Plant response rating, Nutsedge, Yellow [6, 17] | Plant response rating, Cocklebur [7, 16] | Plant response rating, Cocklebur [7, 8] | Plant response rating, Cocklebur [7, 17]
20: Foxtail, Giant plant response rating (0 to 100 scale) ([1]; 125 g ai/ha, 0 = no effect, 100 = complete control, preemergence) | Foxtail, Giant plant response rating ([1]; postemergence, 125 g ai/ha, visual rating, scale 0 (no effect) to 100 (complete control))
65: Plant response rating, Foxtail, Giant [5, 15]
80: Plant response rating, Kochia [4, 8]
